From the supplement of paper PMC10307832

Columns and labels:
Assay in all cases: relative viability (nuclei count vs DMSO), 5 days (fraction); higher = more cells survive
CAL-12T = tested on: CAL-12T
Summary of the method: (§1)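 One day after seeding in 1536-well plates, lung cancer cell lines were dosed by pin tool. Dosing was either single-drug or a fixed anchor-drug dose plus five library-drug doses (not always all listed) in √10 steps. After 5 days, nuclei were stained in one fix-and-stain step and counted on 4× images, and relative viability is the nuclei count of treated wells over that of vehicle wells, given as the median of duplicate plates.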

Calu-6 = tested on: Calu-6
Summary of the method: as §1

ChaGo-K-1 = tested on: ChaGo-K-1
Summary of the method: as §1

EBC-1 = tested on: EBC-1
Summary of the method: as §1

EMC-BAC-2 = tested on: EMC-BAC-2
Summary of the method: as §1

HCC-366 = tested on: HCC-366
Summary of the method: as §1

HCC-78 = tested on: HCC-78
Summary of the method: as §1

HOP-62 = tested on: HOP-62
Summary of the method: as §1

LC-2-ad = tested on: LC-2-ad
Summary of the method: as §1

LK-2 = tested on: LK-2
Summary of the method: as §1

NCI-H1355 = tested on: NCI-H1355
Summary of the method: as §1

NCI-H1734 = tested on: NCI-H1734
Summary of the method: as §1

NCI-H1993 = tested on: NCI-H1993
Summary of the method: as §1

NCI-H2009 = tested on: NCI-H2009
Summary of the method: as §1

NCI-H2085 = tested on: NCI-H2085
Summary of the method: as §1

NCI-H2228 = tested on: NCI-H2228
Summary of the method: as §1

NCI-H2347 = tested on: NCI-H2347
Summary of the method: as §1

NCI-H2405 = tested on: NCI-H2405
Summary of the method: as §1

NCI-H3122 = tested on: NCI-H3122
Summary of the method: as §1

NCI-H596 = tested on: NCI-H596
Summary of the method: as §1

PC-14 = tested on: PC-14
Summary of the method: as §1

RERF-LC-KJ = tested on: RERF-LC-KJ
Summary of the method: as §1

SK-MES-1 = tested on: SK-MES-1
Summary of the method: as §1

SW 1573 = tested on: SW 1573
Summary of the method: as §1

SW 900 = tested on: SW 900
Summary of the method: as §1

`CCCCCCCCCCCC1=C(O)C(=O)C=C(O)C1=O` [Embelin] + COc1cc2c(Oc3ccc(NC(=O)C4(C(=O)Nc5ccc(F)cc5)CC4)cc3F)ccnc2cc1OCCCN1CCOCC1 [Foretinib] (partner 0.25 µM) gave a relative viability (CAL-12T; first compound 0.08 µM) of 1.1, a relative viability (CAL-12T; first compound 0.8 µM) of 1.22 and a relative viability (CAL-12T; first compound 2.53 µM) of 1.26. The relative viability (CAL-12T; first compound 8 µM) was 1.16, the relative viability (Calu-6; first compound 0.08 µM) was 0.86 and the relative viability (Calu-6; first compound 0.8 µM) was 1.01. It also gave a relative viability (Calu-6; first compound 2.53 µM) of 0.883, a relative viability (Calu-6; first compound 8 µM) of 1.03 and a relative viability (ChaGo-K-1; first compound 0.08 µM) of 0.951. For the same compound, the relative viability (ChaGo-K-1; first compound 0.8 µM) was 1.01, the relative viability (ChaGo-K-1; first compound 2.53 µM) was 1 and the relative viability (ChaGo-K-1; first compound 8 µM) was 1.01. It also gave a relative viability (EBC-1; first compound 0.08 µM) of 0.0948, a relative viability (EBC-1; first compound 0.8 µM) of 0.124 and a relative viability (EBC-1; first compound 2.53 µM) of 0.102. For the same compound, the relative viability (EBC-1; first compound 8 µM) was 0.103, the relative viability (EMC-BAC-2; first compound 0.08 µM) was 1.05 and the relative viability (EMC-BAC-2; first compound 0.8 µM) was 1.09. For the same compound, the relative viability (EMC-BAC-2; first compound 2.53 µM) was 0.973, the relative viability (EMC-BAC-2; first compound 8 µM) was 1.07 and the relative viability (HCC-366; first compound 0.08 µM) was 0.906. The relative viability (HCC-366; first compound 0.8 µM) was 1.03, the relative viability (HCC-366; first compound 2.53 µM) was 0.94 and the relative viability (HCC-366; first compound 8 µM) was 0.99. The relative viability (HCC-78; first compound 0.08 µM) was 0.544, the relative viability (HCC-78; first compound 0.8 µM) was 0.601 and the relative viability (HCC-78; first compound 2.53 µM) was 0.65. For the same compound, the relative viability (HCC-78; first compound 8 µM) was 0.559, the relative viability (HOP-62; first compound 0.08 µM) was 1.27 and the relative viability (HOP-62; first compound 0.8 µM) was 1.18. For the same compound, the relative viability (HOP-62; first compound 2.53 µM) was 1.23, the relative viability (HOP-62; first compound 8 µM) was 1.25 and the relative viability (LC-2-ad; first compound 0.08 µM) was 0.916. It also gave a relative viability (LC-2-ad; first compound 0.8 µM) of 0.987, a relative viability (LC-2-ad; first compound 2.53 µM) of 1.13 and a relative viability (LC-2-ad; first compound 8 µM) of 0.861. It also gave a relative viability (LK-2; first compound 0.08 µM) of 1.13, a relative viability (LK-2; first compound 0.8 µM) of 1.7 and a relative viability (LK-2; first compound 2.53 µM) of 1.47. For the same compound, the relative viability (LK-2; first compound 8 µM) was 1.79, the relative viability (NCI-H1355; first compound 0.08 µM) was 0.969 and the relative viability (NCI-H1355; first compound 0.8 µM) was 1.07. It also gave a relative viability (NCI-H1355; first compound 2.53 µM) of 1.21, a relative viability (NCI-H1355; first compound 8 µM) of 1.03 and a relative viability (NCI-H1734; first compound 0.08 µM) of 0.899. The relative viability (NCI-H1734; first compound 0.8 µM) was 0.926, the relative viability (NCI-H1734; first compound 2.53 µM) was 0.989 and the relative viability (NCI-H1734; first compound 8 µM) was 0.924. It also gave a relative viability (NCI-H1993; first compound 0.08 µM) of 0.803, a relative viability (NCI-H1993; first compound 0.8 µM) of 0.699 and a relative viability (NCI-H1993; first compound 2.53 µM) of 0.876. The relative viability (NCI-H1993; first compound 8 µM) was 0.834, the relative viability (NCI-H2009; first compound 0.08 µM) was 1.24 and the relative viability (NCI-H2009; first compound 0.8 µM) was 1.33. The relative viability (NCI-H2009; first compound 2.53 µM) was 1.24, the relative viability (NCI-H2009; first compound 8 µM) was 1.17 and the relative viability (NCI-H2085; first compound 0.08 µM) was 1.04. It also gave a relative viability (NCI-H2085; first compound 0.8 µM) of 0.986, a relative viability (NCI-H2085; first compound 2.53 µM) of 1.05 and a relative viability (NCI-H2085; first compound 8 µM) of 0.843. The relative viability (NCI-H2228; first compound 0.08 µM) was 1.08, the relative viability (NCI-H2228; first compound 0.8 µM) was 0.868 and the relative viability (NCI-H2228; first compound 2.53 µM) was 1.32. For the same compound, the relative viability (NCI-H2228; first compound 8 µM) was 0.996, the relative viability (NCI-H2347; first compound 0.08 µM) was 0.981 and the relative viability (NCI-H2347; first compound 0.8 µM) was 0.837. For the same compound, the relative viability (NCI-H2347; first compound 2.53 µM) was 1.21, the relative viability (NCI-H2347; first compound 8 µM) was 0.942 and the relative viability (NCI-H2405; first compound 0.08 µM) was 1.15. It also gave a relative viability (NCI-H2405; first compound 0.8 µM) of 1.14, a relative viability (NCI-H2405; first compound 2.53 µM) of 1.11 and a relative viability (NCI-H2405; first compound 8 µM) of 1.06. It also gave a relative viability (NCI-H3122; first compound 0.08 µM) of 0.98, a relative viability (NCI-H3122; first compound 0.8 µM) of 1.01 and a relative viability (NCI-H3122; first compound 2.53 µM) of 0.951. The relative viability (NCI-H3122; first compound 8 µM) was 1.03, the relative viability (NCI-H596; first compound 0.08 µM) was 0.834 and the relative viability (NCI-H596; first compound 0.8 µM) was 0.835. It also gave a relative viability (NCI-H596; first compound 2.53 µM) of 1.02, a relative viability (NCI-H596; first compound 8 µM) of 0.764 and a relative viability (PC-14; first compound 0.08 µM) of 1.05. The relative viability (PC-14; first compound 0.8 µM) was 0.992, the relative viability (PC-14; first compound 2.53 µM) was 1.06 and the relative viability (PC-14; first compound 8 µM) was 1.08. For the same compound, the relative viability (RERF-LC-KJ; first compound 0.08 µM) was 0.836, the relative viability (RERF-LC-KJ; first compound 0.8 µM) was 0.965 and the relative viability (RERF-LC-KJ; first compound 2.53 µM) was 0.95. It also gave a relative viability (RERF-LC-KJ; first compound 8 µM) of 1, a relative viability (SK-MES-1; first compound 0.08 µM) of 0.943 and a relative viability (SK-MES-1; first compound 0.8 µM) of 1.22. It also gave a relative viability (SK-MES-1; first compound 2.53 µM) of 0.972, a relative viability (SK-MES-1; first compound 8 µM) of 0.94 and a relative viability (SW 1573; first compound 0.08 µM) of 0.974. It also gave a relative viability (SW 1573; first compound 0.8 µM) of 0.998, a relative viability (SW 1573; first compound 2.53 µM) of 1.08 and a relative viability (SW 1573; first compound 8 µM) of 0.948. For the same compound, the relative viability (SW 900; first compound 0.08 µM) was 0.89, the relative viability (SW 900; first compound 0.8 µM) was 0.915 and the relative viability (SW 900; first compound 2.53 µM) was 1.02. For the same compound, the relative viability (SW 900; first compound 8 µM) was 0.876.
